Results reported in patent US12540137B2, “N-1 branched alkyl ether substituted imidazo[4,5-c]quinoline compounds, compositions, and methods” (Solventum Intellectual Properties Company, priority 2018, dated 2026).

biological target: T1, human TLR8 (Homo sapiens, UniProt Q9NR97); assay: TLR activation, HEK-BLUE-hTLR8 SEAP reporter cells; format: cell-based; settings: 16-20 hours, SEAP response at least 2× vehicle control, tested 0.01-30 micromolar
T1 construct: host or cells: HEK293 (HEK-BLUE-hTLR8)
T1 sequence (Q9NR97 27-1041): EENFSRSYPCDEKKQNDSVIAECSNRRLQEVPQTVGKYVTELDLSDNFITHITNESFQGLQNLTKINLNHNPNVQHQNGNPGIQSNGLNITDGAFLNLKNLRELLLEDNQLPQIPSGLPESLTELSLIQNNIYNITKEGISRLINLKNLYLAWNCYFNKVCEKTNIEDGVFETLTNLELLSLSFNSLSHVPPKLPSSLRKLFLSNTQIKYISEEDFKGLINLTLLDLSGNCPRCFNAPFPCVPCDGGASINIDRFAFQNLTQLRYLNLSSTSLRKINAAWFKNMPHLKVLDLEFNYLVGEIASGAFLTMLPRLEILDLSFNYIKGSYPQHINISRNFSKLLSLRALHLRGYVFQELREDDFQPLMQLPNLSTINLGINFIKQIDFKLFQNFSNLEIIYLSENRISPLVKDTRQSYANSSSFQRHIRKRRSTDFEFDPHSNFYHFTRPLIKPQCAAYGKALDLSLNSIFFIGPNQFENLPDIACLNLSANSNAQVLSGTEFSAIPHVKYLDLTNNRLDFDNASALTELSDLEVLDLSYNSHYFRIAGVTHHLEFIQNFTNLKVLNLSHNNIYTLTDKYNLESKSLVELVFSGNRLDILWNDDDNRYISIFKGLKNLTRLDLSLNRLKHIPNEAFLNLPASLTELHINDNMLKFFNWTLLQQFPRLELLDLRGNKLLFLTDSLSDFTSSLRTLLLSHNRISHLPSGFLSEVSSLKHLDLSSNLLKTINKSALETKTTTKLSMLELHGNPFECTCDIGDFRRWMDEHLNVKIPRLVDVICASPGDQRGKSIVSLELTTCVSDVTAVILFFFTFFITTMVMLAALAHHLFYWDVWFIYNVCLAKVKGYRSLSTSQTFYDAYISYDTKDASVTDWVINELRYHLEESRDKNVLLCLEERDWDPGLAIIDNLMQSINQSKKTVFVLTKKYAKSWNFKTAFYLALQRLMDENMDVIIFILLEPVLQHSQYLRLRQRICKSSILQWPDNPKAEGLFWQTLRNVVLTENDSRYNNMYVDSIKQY
Method: HEK-BLUE-hTLR7 or hTLR8 reporter cells were obtained from InvivoGen, San Diego, CA. According to the manufacturer's description, these reporter cells were prepared by co-transfection of HEK293 cells with an inducible secreted embryonic alkaline phosphatase (SEAP) reporter gene and either the human TLR7 or TLR8 gene. The SEAP reporter gene was placed under the control of an IFN−β minimal promoter fused to five NF-κB and AP-1-binding sites. In the presence of a TLR ligand, activation of NF-κB and AP-1 occurs, resulting in a corresponding increase in SEAP levels.
In the assay, the HEK cells were grown and maintained using standard cell culture techniques in a growth medium that contained Dulbecco's Modified Eagle Medium (ThermoFisher Scientific Incorporated, Waltham, MA) supplemented with 1% penicillin/streptomycin and 10% heat-inactivated Gibco fetal bovine serum (ThermoFisher Scientific). Each compound was solubilized in DMSO to create a 3 mM stock solution. The stock solution was then further diluted with the growth medium to prepare serial dilutions. Each test compound was tested at a concentration of 30, 10, 3.3, 1.1, 0.37, 0.12, 0.04, and 0.01 micromolar using a 96-well format with 5×10^4 cells and 200 microliters of growth medium per well.
For each compound, hTLR7, hTLR8, and their respective null control HEK cells were screened. DMSO serially diluted into the growth medium served as the vehicle control. Cell culture supernatants containing the SEAP reporter were collected after an incubation period of 16-20 hours in a cell culture incubator (37° C. and 5% CO2), and either analyzed immediately or stored at −80° C. SEAP levels were measured using the colorimetric enzyme assay (QUANTI-BLUE (InvivoGen) according to manufacturer's instructions.
Specifically, the minimum effective concentration of each compound (micromolar) was determined as the lowest concentration of the compound that produced a SEAP expression response at least 2× greater than that observed with the vehicle control wells.

MEC to Produce TLR Activation TLR 8	Compound
>30 µM	CCOC[C@@H](C(C)C)n1cnc2c(N)nc3ccccc3c21 [Example 2, 1-[(1R)-1-(ethoxymethyl)-2-methyl-propyl]imidazo[4,5-c]quinolin-4-amine]
10 µM	CCOC[C@@H](n1c(CC)nc2c(N)nc3ccccc3c21)C(C)(C)O [Example 8, (3R)-3-(4-amino-2-ethyl-imidazo[4,5-c]quinolin-1-yl)-4-ethoxy-2-methyl-butan-2-ol]
>30 µM	CCOC[C@H](n1cnc2c(N)nc3ccccc3c21)C(C)(C)C [Example 10, 1-[(1R)-1-(ethoxymethyl)-2,2-dimethyl-propyl]imidazo[4,5-c]quinolin-4-amine]
30 µM	CCOC[C@H](C(C)C)n1c(C)nc2c(N)nc3ccccc3c21 [Example 3, 1-[(1S)-1-(ethoxymethyl)-2-methyl-propyl]-2-methyl-imidazo[4,5-c]quinolin-4-amine]
30 µM	CCOC[C@H](C(C)C)n1cnc2c(N)nc3ccccc3c21 [Example 1, 1-[(1S)-1-(ethoxymethyl)-2-methyl-propyl]imidazo[4,5-c]quinolin-4-amine]
30 µM	CCOC[C@@H](n1cnc2c(N)nc3ccccc3c21)C(O)(CC)CC [Example 12, (2R)-2-(4-aminoimidazo[4,5-c]quinolin-1-yl)-1-ethoxy-3-ethyl-pentan-3-ol]
1.1 µM	CCOC[C@@H](n1c(C)nc2c(N)nc3ccccc3c21)C(C)(C)O [Example 7, (3R)-3-(4-amino-2-methyl-imidazo[4,5-c]quinolin-1-yl)-4-ethoxy-2-methyl-butan-2-ol]
>30 µM	CCOC[C@@H](C(C)C)n1c(C)nc2c(N)nc3ccccc3c21 [Example 4, 1-[(1R)-1-(ethoxymethyl)-2-methyl-propyl]-2-methyl-imidazo[4,5-c]quinolin-4-amine]
3.3 µM	CCOC[C@@H](n1cnc2c(N)nc3ccccc3c21)C(C)(C)O [Example 5, (3R)-3-(4-aminoimidazo[4,5-c]quinolin-1-yl)-4-ethoxy-2-methyl-butan-2-ol]
>30 µM	COC[C@@H](n1cnc2c(N)nc3ccccc3c21)C(C)(C)C [Example 11, 1-[(1S)-1-(methoxymethyl)-2,2-dimethyl-propyl]imidazo[4,5-c]quinolin-4-amine]
30 µM	CCOC[C@@H](n1cnc2c(N)nc3ccccc3c21)C(C)(C)C [Example 9, 1-[(1S)-1-(ethoxymethyl)-2,2-dimethyl-propyl]imidazo[4,5-c]quinolin-4-amine]
10 µM	CCO[C@@H](C)[C@@H](n1cnc2c(N)nc3ccccc3c21)C(C)(C)O [Example 13, (3R,4S)-3-(4-aminoimidazo[4,5-c]quinolin-1-yl)-4-ethoxy-2-methyl-pentan-2-ol]
>30 µM	CCOC[C@H](n1cnc2c(N)nc3ccccc3c21)C(C)(C)O [Example 6, (3S)-3-(4-aminoimidazo[4,5-c]quinolin-1-yl)-4-ethoxy-2-methyl-butan-2-ol]
